Columns and labels:
ABL1 = ABL1 (Homo sapiens, UniProt P00519); assay: SelectScreen Z′-LYTE kinase assay; type: biochemical
Procedure: (§1) The kinase selectivity profile of BST-4 was performed by the SelectScreen kinase profiling service (Thermo Fisher Scientific). Kinase selectivity assay was performed using Z′-LYTE ™ screening protocol kit. Briefly, the test compounds were screened in 1% DMSO (final). For 10-point titrations, perform a 3-fold dilution starting at a starting concentration of 50 µM. Then 2.5 µL 4× test compound, 2.4 µL kinase buffer, 5 µL 2× kinase mixture and 2.5 µL 4× ATP solution was added in black 384-well plate. After shaking for 30 s, the plates were incubated for 60 min at room temperature. Add developing reagent solution and shake the plate for 30 s, then incubate for 1 h at room temperature. The Fluorescence intensity per well was read using a fluorescence plate reader. SelectScreen® Kinase Profiling Service used XLfit from IDBS. The dose response curve was curve fit to model number 205 (sigmoidal dose-response model) and inhibition rates were calculated. 50% inhibition was used as a activity threshold. IC50 values were calculated based on curve fitting.

ROS1 = ROS1 (Homo sapiens, UniProt P08922); assay: SelectScreen Z′-LYTE kinase assay; type: biochemical
Procedure: as §1

MUSK = MUSK (Homo sapiens, UniProt O15146); assay: SelectScreen Z′-LYTE kinase assay; type: biochemical
Sequence of MUSK (O15146 24-869): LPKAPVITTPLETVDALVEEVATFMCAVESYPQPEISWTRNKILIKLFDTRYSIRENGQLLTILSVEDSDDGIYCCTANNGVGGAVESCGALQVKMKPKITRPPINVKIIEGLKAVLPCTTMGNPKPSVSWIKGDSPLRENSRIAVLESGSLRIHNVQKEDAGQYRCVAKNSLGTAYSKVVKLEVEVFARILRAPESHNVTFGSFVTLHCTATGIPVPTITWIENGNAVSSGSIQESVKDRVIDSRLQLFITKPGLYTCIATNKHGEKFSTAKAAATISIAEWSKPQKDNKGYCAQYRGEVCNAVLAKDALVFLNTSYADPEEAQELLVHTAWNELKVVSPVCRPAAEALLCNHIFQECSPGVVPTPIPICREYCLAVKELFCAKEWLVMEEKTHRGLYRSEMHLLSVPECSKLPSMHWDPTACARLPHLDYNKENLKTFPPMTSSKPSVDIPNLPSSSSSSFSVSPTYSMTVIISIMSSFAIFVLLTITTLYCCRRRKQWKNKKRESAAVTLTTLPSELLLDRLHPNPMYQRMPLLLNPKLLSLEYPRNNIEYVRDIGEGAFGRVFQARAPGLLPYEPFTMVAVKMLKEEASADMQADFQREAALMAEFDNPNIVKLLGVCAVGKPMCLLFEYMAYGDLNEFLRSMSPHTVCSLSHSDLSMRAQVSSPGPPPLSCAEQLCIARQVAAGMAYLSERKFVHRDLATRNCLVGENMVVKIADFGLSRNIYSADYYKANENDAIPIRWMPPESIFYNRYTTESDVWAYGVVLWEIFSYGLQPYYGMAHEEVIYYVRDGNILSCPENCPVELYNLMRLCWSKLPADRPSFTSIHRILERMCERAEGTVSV
Procedure: as §1

EPHA3 = EPHA3 (Homo sapiens, UniProt P29320); assay: SelectScreen Z′-LYTE kinase assay; type: biochemical
Procedure: as §1

BMX = BMX (Homo sapiens, UniProt P51813); assay: SelectScreen Z′-LYTE kinase assay; type: biochemical
Procedure: as §1

EPHB2 = EPHB2 (Homo sapiens, UniProt P29323); assay: SelectScreen Z′-LYTE kinase assay; type: biochemical
Procedure: as §1

BLK = BLK (Homo sapiens, UniProt P51451); assay: SelectScreen Z′-LYTE kinase assay; type: biochemical
Procedure: as §1

KDR = KDR (Homo sapiens, UniProt P35968); assay: SelectScreen Z′-LYTE kinase assay; type: biochemical
Procedure: as §1

ZAP70 = ZAP70 (Homo sapiens, UniProt P43403); assay: SelectScreen Z′-LYTE kinase assay; type: biochemical
Procedure: as §1

TYRO3 = TYRO3 (Homo sapiens, UniProt Q06418); assay: SelectScreen Z′-LYTE kinase assay; type: biochemical
Procedure: as §1

FGFR2 = FGFR2 (Homo sapiens, UniProt P21802); assay: SelectScreen Z′-LYTE kinase assay; type: biochemical
Procedure: as §1

ERBB4 = ERBB4 (Homo sapiens, UniProt Q15303); assay: SelectScreen Z′-LYTE kinase assay; type: biochemical
Procedure: as §1

DDR1 = DDR1 (Homo sapiens, UniProt Q08345); assay: SelectScreen Z′-LYTE kinase assay; type: biochemical
Procedure: as §1

EPHB4 = EPHB4 (Homo sapiens, UniProt P54760); assay: SelectScreen Z′-LYTE kinase assay; type: biochemical
Sequence of EPHB4 (P54760 16-987): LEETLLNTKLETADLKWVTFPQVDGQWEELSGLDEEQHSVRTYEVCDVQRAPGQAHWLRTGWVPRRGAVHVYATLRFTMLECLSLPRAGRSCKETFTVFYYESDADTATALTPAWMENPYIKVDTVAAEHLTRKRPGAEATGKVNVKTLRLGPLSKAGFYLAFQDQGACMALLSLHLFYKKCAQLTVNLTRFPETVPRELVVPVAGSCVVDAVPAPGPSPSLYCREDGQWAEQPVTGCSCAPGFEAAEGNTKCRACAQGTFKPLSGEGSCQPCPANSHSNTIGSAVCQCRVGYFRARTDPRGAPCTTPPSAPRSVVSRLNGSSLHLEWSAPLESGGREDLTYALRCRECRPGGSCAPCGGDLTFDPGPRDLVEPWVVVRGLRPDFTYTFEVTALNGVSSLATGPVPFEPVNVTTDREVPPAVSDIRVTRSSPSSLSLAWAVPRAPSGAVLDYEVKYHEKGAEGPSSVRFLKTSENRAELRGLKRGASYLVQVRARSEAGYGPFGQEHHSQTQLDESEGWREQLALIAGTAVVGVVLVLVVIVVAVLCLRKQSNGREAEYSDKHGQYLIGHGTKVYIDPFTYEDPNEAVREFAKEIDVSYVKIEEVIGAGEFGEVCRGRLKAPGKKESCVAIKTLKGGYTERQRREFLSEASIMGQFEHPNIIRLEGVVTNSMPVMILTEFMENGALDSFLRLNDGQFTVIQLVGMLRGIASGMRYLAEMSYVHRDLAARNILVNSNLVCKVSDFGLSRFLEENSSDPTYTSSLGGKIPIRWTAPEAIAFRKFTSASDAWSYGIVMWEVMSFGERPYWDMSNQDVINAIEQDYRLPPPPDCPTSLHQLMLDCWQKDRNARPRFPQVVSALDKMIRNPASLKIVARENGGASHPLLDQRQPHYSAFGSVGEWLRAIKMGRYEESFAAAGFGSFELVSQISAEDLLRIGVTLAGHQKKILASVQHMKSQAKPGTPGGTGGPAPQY
Procedure: as §1

LTK = LTK (Homo sapiens, UniProt P29376); assay: SelectScreen Z′-LYTE kinase assay; type: biochemical
Procedure: as §1

EPHA6 = EPHA6 (Homo sapiens, UniProt Q9UF33); assay: SelectScreen Z′-LYTE kinase assay; type: biochemical
Sequence of EPHA6 (Q9UF33 23-1036): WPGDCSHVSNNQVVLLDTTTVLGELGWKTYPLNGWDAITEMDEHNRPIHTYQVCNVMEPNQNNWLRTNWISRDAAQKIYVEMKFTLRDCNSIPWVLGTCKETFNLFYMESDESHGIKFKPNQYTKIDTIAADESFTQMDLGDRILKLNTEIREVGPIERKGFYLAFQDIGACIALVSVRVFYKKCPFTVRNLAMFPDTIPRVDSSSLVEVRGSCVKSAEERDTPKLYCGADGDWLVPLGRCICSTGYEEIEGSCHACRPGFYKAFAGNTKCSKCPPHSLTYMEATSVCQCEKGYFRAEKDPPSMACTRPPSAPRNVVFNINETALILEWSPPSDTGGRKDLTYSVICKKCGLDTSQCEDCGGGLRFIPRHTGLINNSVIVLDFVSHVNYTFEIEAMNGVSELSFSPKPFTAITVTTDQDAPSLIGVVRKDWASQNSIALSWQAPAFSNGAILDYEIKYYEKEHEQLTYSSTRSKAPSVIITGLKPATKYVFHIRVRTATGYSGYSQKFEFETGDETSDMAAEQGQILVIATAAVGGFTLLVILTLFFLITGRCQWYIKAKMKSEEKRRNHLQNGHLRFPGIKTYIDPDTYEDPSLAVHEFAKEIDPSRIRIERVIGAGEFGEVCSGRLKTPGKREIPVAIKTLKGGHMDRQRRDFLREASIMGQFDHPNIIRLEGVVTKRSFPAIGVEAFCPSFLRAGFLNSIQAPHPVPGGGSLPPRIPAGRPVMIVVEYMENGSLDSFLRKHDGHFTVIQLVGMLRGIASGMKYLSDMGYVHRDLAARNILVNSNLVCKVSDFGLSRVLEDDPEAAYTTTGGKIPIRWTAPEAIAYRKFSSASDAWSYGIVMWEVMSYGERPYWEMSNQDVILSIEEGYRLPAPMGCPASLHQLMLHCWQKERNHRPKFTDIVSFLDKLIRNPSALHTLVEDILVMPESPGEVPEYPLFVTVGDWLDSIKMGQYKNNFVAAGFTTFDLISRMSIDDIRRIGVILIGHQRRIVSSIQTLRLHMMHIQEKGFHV
Procedure: as §1

TNK2 = TNK2 (Homo sapiens, UniProt Q07912); assay: SelectScreen Z′-LYTE kinase assay; type: biochemical
Procedure: as §1

FLT1 = FLT1 (Homo sapiens, UniProt P17948); assay: SelectScreen Z′-LYTE kinase assay; type: biochemical
Procedure: as §1

TYK2 = TYK2 (Homo sapiens, UniProt P29597); assay: SelectScreen Z′-LYTE kinase assay; type: biochemical
Procedure: as §1

BTK = BTK (Homo sapiens, UniProt Q06187); assay: SelectScreen Z′-LYTE kinase assay; type: biochemical
Procedure: as §1

ERBB2 = ERBB2 (Homo sapiens, UniProt P04626); assay: SelectScreen Z′-LYTE kinase assay; type: biochemical
Procedure: as §1

ABL2 = ABL2 (Homo sapiens, UniProt P42684); assay: SelectScreen Z′-LYTE kinase assay; type: biochemical
Procedure: as §1

PTK6 = PTK6 (Homo sapiens, UniProt Q13882); assay: SelectScreen Z′-LYTE kinase assay; type: biochemical
Procedure: as §1

NTRK3 = NTRK3 (Homo sapiens, UniProt Q16288); assay: SelectScreen Z′-LYTE kinase assay; type: biochemical
Sequence of NTRK3 (Q16288 32-839): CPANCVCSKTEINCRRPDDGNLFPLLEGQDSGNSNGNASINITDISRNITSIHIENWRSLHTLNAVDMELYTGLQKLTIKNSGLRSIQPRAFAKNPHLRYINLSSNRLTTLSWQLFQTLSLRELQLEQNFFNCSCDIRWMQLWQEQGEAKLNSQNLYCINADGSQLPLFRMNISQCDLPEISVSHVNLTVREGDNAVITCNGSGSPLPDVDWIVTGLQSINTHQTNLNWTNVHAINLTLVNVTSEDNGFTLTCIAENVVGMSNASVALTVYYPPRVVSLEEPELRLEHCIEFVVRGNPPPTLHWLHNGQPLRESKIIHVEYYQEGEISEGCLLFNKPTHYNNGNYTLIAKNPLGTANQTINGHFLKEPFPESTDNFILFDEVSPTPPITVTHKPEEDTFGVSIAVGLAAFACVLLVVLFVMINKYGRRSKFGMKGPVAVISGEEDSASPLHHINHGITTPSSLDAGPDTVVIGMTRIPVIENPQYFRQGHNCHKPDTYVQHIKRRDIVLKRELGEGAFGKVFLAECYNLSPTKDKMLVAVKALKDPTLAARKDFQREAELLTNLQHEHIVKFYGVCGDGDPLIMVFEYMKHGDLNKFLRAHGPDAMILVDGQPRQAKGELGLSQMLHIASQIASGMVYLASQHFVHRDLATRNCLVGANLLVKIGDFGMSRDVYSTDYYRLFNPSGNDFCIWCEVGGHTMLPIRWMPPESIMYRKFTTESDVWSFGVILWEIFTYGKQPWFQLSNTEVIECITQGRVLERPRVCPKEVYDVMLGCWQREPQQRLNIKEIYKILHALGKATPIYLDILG
Procedure: as §1

PTK2 = PTK2 (Homo sapiens, UniProt Q05397); assay: SelectScreen Z′-LYTE kinase assay; type: biochemical
Procedure: as §1

FGFR4 = FGFR4 (Homo sapiens, UniProt P22455); assay: SelectScreen Z′-LYTE kinase assay; type: biochemical
Procedure: as §1

c-myc mRNA = assay: RT-qPCR of c-myc mRNA in CAKI-2 cells; type: cell-based, human; settings: 24 h, different concentrations
Procedure: This method was performed as previously reported. Briefly, the CAKI-2 cells were seeded into 6-well plates and cultured overnight, and treated with different concentrations of BST-4 for 24 h. RNA was extracted from cells and tissues using Trizol reagent and reverse transcribed using PrimeScriptRTase. cDNA was used for RT-qPCR SYBR Green assays (Takara). The relative levels of c-myc mRNA were calculated as [(c-myc mRNA in the treatment group)/(β-actin mRNA in the treatment group)]/[(c-myc mRNA in the control group)/(β-actin mRNA in the control group).

BRD3 = BRD3 (Homo sapiens, UniProt Q15059); assay: Binding affinity to BET and STAT family members
BRD4 = BRD4 (Homo sapiens, UniProt O60885); assay: Microscale thermophoresis (MST) assay; type: binding; design: purchased Abcam

Sequence of ABL1 (P00519 whole entry): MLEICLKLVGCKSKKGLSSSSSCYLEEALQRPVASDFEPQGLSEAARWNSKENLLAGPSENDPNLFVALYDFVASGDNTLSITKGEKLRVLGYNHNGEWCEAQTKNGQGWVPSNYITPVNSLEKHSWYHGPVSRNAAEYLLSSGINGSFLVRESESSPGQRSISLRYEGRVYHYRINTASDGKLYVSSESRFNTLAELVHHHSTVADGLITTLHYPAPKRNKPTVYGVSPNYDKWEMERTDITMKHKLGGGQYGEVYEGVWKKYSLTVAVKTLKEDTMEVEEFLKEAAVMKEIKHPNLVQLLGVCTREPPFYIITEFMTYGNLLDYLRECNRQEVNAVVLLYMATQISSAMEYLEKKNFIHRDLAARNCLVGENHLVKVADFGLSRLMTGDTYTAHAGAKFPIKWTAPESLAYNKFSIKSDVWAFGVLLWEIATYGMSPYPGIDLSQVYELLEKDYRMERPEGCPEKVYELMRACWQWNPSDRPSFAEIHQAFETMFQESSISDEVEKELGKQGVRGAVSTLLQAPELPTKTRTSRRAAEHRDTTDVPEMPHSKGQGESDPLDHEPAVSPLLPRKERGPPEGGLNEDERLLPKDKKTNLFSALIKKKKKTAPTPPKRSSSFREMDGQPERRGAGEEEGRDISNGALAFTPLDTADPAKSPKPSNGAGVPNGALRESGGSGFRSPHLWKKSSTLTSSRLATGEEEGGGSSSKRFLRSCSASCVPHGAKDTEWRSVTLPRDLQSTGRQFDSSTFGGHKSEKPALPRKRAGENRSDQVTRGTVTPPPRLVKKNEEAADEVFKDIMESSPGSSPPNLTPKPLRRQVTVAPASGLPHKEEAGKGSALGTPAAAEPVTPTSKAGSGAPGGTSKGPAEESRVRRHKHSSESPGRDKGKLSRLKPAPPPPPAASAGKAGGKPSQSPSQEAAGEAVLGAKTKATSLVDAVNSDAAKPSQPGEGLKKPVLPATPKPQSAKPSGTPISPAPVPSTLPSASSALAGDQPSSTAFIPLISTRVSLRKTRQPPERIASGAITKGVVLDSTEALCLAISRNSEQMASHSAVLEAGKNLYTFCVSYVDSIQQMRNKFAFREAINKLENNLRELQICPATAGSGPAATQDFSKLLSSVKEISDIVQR

- IC50 (ABL1): > 10 µM
- inhibition at 1 µM (ABL1): 0.31%
- IC50 (ROS1): > 10 µM
- inhibition at 1 µM (ROS1): 0.97%
- IC50 (MUSK): > 10 µM
- inhibition at 1 µM (MUSK): 1.26%
- IC50 (EPHA3): > 10 µM
- inhibition at 1 µM (EPHA3): 0.89%
- IC50 (BMX): > 10 µM
- inhibition at 1 µM (BMX): 3.05%
- IC50 (EPHB2): > 10 µM
- inhibition at 1 µM (EPHB2): 0.51%
- IC50 (BLK): > 10 µM
- inhibition at 1 µM (BLK): 0.54%
- IC50 (KDR): > 10 µM
- inhibition at 1 µM (KDR): 1.51%
- IC50 (ZAP70): > 10 µM
- inhibition at 1 µM (ZAP70): 0.68%
- IC50 (TYRO3): > 10 µM
- inhibition at 1 µM (TYRO3): 0.04%
- IC50 (FGFR2): > 10 µM
- inhibition at 1 µM (FGFR2): 0.45%
- IC50 (ERBB4): > 10 µM
- inhibition at 1 µM (ERBB4): 0.78%
- IC50 (DDR1): > 10 µM
- inhibition at 1 µM (DDR1): 3.63%
- IC50 (EPHB4): > 10 µM
- inhibition at 1 µM (EPHB4): 0.97%
- IC50 (LTK): > 10 µM
- inhibition at 1 µM (LTK): 0.21%
- IC50 (EPHA6): > 10 µM
- inhibition at 1 µM (EPHA6): 0.26%
- IC50 (TNK2): > 10 µM
- inhibition at 1 µM (TNK2): 0.93%
- IC50 (FLT1): > 10 µM
- inhibition at 1 µM (FLT1): 0.14%
- IC50 (TYK2): > 10 µM
- inhibition at 1 µM (TYK2): 5.33%
- IC50 (BTK): > 10 µM
- inhibition at 1 µM (BTK): 0.11%
- IC50 (ERBB2): > 10 µM
- inhibition at 1 µM (ERBB2): 4.43%
- IC50 (ABL2): > 10 µM
- inhibition at 1 µM (ABL2): 0.44%
- IC50 (PTK6): > 10 µM
- inhibition at 1 µM (PTK6): 2.34%
- IC50 (NTRK3): > 10 µM
- inhibition at 1 µM (NTRK3): 4.75%
- IC50 (PTK2): > 10 µM
- inhibition at 1 µM (PTK2): 1.48%
- IC50 (FGFR4): > 10 µM
- inhibition at 1 µM (FGFR4): 0.68%
- Kd (BRD3): > 10 µM
- BRD4 binding affinity relative to RVX-208 (BRD4; Kd ratio vs RVX-208, MST): 17 fold
- Kd (BRD4; MST): 0.00146 ± 7e-05 µM
Structure (SMILES): CCS(=O)(=O)Cc1cnc(Oc2c(F)cc(F)cc2OCCCCOc2ccc(/C=C/c3cc(OC)cc(OC)c3)cc2)c(-c2cc(C)c3c(=O)[nH]ccn23)c1 [BST-4]
- expression of c-myc mRNA in CAKI-2 cells (c-myc mRNA): strongly dose-dependent downregulated
